Values of other authors as cited in patent US20230190793A1, “Pharmaceutical Preparation for Use in the Treatment of Systemic Inflammatory Response Syndrome (SIRS)” (priority 2020, published 2023).

| Molecule | Acid dissociation constant as pKa at 298 K |
| --- | --- |
| peroxochloric acid | approx. 6.2 |
| [O-][Cl+2]([O-])O [chloric acid] | 0 |
| OCl [hypochlorous acid] | 7.25 |
